Test [1] concerns the target T1, human TRPM8 (Homo sapiens, UniProt Q7Z2W7).
T1 construct: expressed in transfected cells; host or cells: Chinese hamster ovary (CHO) cells, T-REx tetracycline-inducible expression system (Invitrogen); co-transfected with pcDNA3.1 aequorin
As to the kind of experiment: Luminescence readout assay for measuring intracellular calcium (aequorin, CHO cells expressing human TRPM8; icilin, L-menthol or cold activation). The format is cell-based. The settings on record: CHO cells expressing human TRPM8, icilin activation (1 μM), aequorin luminescence; read-out: hTRPM8 IC50. The essentials:
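Activation was by 1 μM icilin, 100 μM L-menthol (test compound 2.5 min ahead) or cold buffer below 10° C (compound 1 min ahead). Calcium rise measured as aequorin luminescence in CHO cells with tetracycline-inducible human TRPM8.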
On the technique in general: Calcium flux is commonly read through the fluorescence of an indicator in the cells.

Test [2] concerns icilin induced wet-dog shakes. The test can be described thus: Inhibition of icilin induced shaking (wet-dog shakes) in rats. The format is in vivo, male Sprague Dawley rats. The settings on record: po; rat, dose 1 mg/kg. Here is the method:
Inhibition of Icilin Induced Shaking in Rats
Example compounds at doses ranging from 0.01 to 3 mg/kg (p.o, suspended in 5% Tween80/Oralplus or suspended in 2% HPMC-1% Tween-80 pH2.2 with MSA, 5 mL/kg) can be administered to male Sprague Dawley rats (200-300 g, Harlan, n=6-8/treatment) 2 h before icilin to assess the ability to block the spontaneous wet-dog shake phenomena induced by icilin (i.p., suspended in 100% PEG400 at 0.5 mg/kg, 1 mL/kg or p.o., suspended in 2% HPMC-1% Tween-80 at 3 mg/kg, 2.5 mL/kg). Spontaneous wet-dog shakes may be counted manually by two blinded observers or using LABORAS automation (Metris) for 30 min post-icilin. The synthesized and prophetic example compounds may be measured using these procedures and will be found to reduce the spontaneous wet dog shake phenomena induced by icilin.

For orientation: IC50 means the midpoint of a concentration-inhibition curve. Broadly, the inhibition in vivo is the relative decrease from the control value, in per cent.

T1 sequence (Q7Z2W7 whole entry): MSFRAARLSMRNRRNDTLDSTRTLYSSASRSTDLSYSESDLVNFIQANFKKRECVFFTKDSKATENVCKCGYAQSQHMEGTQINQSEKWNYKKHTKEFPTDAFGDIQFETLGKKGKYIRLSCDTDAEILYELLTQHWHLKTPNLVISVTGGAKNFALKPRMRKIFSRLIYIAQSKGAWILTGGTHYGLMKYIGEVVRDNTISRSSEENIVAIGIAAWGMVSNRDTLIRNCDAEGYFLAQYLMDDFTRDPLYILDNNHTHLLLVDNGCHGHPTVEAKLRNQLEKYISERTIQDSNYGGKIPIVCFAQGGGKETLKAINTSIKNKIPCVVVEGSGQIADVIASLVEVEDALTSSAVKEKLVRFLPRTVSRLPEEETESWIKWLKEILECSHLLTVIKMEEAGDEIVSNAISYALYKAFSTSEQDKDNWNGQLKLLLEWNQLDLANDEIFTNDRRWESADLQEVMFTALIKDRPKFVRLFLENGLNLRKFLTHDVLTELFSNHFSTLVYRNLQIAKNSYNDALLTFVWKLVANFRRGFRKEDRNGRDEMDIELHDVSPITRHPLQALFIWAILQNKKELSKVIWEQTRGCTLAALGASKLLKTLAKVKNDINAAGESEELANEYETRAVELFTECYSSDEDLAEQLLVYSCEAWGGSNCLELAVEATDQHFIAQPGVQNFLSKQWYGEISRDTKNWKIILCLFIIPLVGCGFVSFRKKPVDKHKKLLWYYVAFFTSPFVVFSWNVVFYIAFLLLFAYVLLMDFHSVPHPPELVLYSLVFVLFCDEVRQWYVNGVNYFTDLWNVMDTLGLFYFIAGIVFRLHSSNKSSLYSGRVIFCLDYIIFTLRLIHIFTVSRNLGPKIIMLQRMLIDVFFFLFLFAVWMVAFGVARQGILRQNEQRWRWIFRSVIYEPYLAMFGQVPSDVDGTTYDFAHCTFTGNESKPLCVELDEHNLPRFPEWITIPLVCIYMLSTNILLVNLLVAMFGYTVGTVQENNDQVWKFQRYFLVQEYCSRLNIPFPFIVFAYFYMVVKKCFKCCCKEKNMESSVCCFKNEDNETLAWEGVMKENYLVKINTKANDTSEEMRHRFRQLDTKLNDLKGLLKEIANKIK

Take `O=C(N[C@]1(c2ccc(OC(F)(F)F)c(F)c2)CCOc2cccnc21)c1ccc2[nH]c(=O)oc2c1` (single isomer, unassigned) [Example 21]: in test [1], the IC50 worked out at 7 nM. Moreover, 1 mg/kg produced 98% inhibition in vivo in test [2]. For `O=C(N[C@]1(c2ccc(OC(F)(F)F)cc2)CCOc2cccnc21)c1ccc(=O)[nH]c1` (single isomer, unassigned) [Example 58], the IC50 in test [1] was determined as 21 nM. In test [2], this molecule came in with an inhibition in vivo at 1 mg/kg of 97%.

For the molecule `O=C(N[C@]1(c2ccc(OC(F)(F)F)c(F)c2)CCOc2cccnc21)c1c[nH]c(=O)cn1` [Example 50, (S)-N-(4-(3-fluoro-4-(trifluoromethoxy)phenyl)-3,4-dihydro-2H-pyrano[3,2-b]pyridin-4-yl)-5-oxo-4,5-dihydropyrazine-2-carboxamide], the IC50 in test [1] amounted to 8 nM. This molecule also displayed an inhibition in vivo at 1 mg/kg in test [2] of 67%.

With `O=C(N[C@]1(c2ccc(OC(F)(F)F)c(F)c2)CCOc2cccnc21)c1ccc(=O)[nH]c1` [Example 59, (S)—N-(4-(3-fluoro-4-(trifluoromethoxy)phenyl)-3,4-dihydro-2H-pyrano[3,2-b]pyridin-4-yl)-6-oxo-1,6-dihydropyridine-3-carboxamide], the IC50 in test [1] came out at 13 nM. In test [2], the inhibition in vivo at 1 mg/kg amounted to 99%.

With `O=C(N[C@]1(c2ccc(C(F)(F)F)cc2)CCOc2cccnc21)c1ccc2oc(=O)[nH]c2c1` [Example 61, (S)-2-oxo-N-(4-(4-(trifluoromethyl)phenyl)-3,4-dihydro-2H-pyrano[3,2-b]pyridin-4-yl)-2,3-dihydrobenzo[d]oxazole-5-carboxamide], the IC50 in test [1] was 6 nM. For the same molecule, at 1 mg/kg the inhibition in vivo in test [2] was 80%.

Take `O=C(O)c1ccc(C(=O)N[C@]2(c3ccc(OC(F)(F)F)c(F)c3)CCOc3cccnc32)nc1` [Example 75]: the IC50 in test [1] is 14 nM. The inhibition in vivo at 1 mg/kg in test [2] was 99%. The matching figures for `O=C(Nc1ncccn1)N[C@]1(c2ccc(OC(F)(F)F)c(F)c2)CCOc2cccnc21` [Example 83, (S)-1-(4-(3-fluoro-4-(trifluoromethoxy)phenyl)-3,4-dihydro-2H-pyrano[3,2-b]pyridin-4-yl)-3-(pyrimidin-2-yl)urea]: 28 nM and 59%. For `O=C(Nc1cncnc1)N[C@]1(c2ccc(OC(F)(F)F)c(F)c2)CCOc2cccnc21` [Example 85, (S)-1-(4-(3-fluoro-4-(trifluoromethoxy)phenyl)-3,4-dihydro-2H-pyrano[3,2-b]pyridin-4-yl)-3-(pyrimidin-5-yl)urea] the same measures were 12 nM and 72%. `N#Cc1ccc(-c2ccc([C@@]3(NC(=O)c4ccc5oc(=O)[nH]c5c4)CCOc4cccnc43)cc2)cc1` [Example 155, (S)—N-(4-(4′-cyano-[1,1′-biphenyl]-4-yl)-3,4-dihydro-2H-pyrano[3,2-b]pyridin-4-yl)-2-oxo-2,3-dihydrobenzo[d]oxazole-5-carboxamide 2,2,2-trifluoroacetate]: in test [1], the IC50 amounted to 16 nM. This molecule gave an inhibition in vivo at 1 mg/kg in test [2] of 60%.

On to `O=C(N[C@]1(c2ccc(OC(F)(F)F)c(F)c2)CCOc2cccnc21)c1ccc(CO)cc1` [Example 158, (S)—N-(4-(3-fluoro-4-(trifluoromethoxy)phenyl)-3,4-dihydro-2H-pyrano[3,2-b]pyridin-4-yl)-4-(hydroxymethyl)benzamide], for which, in test [1], the IC50 is 6 nM. Besides, the inhibition in vivo at 1 mg/kg in test [2] amounted to 92%. For `O=C(N[C@]1(c2ccc(C(F)(F)F)c(F)c2)CCOc2cccnc21)c1ccc(=O)[nH]c1` [Example 170, (S)-N-(4-(3-fluoro-4-(trifluoromethyl)phenyl)-3,4-dihydro-2H-pyrano[3,2-b]pyridin-4-yl)-6-oxo-1,6-dihydropyridine-3-carboxamide] the same measures were 21 nM and 90%. As to `O=C(O)c1ccc(C(=O)N[C@]2(c3ccc(OC(F)(F)F)c(F)c3)CCOc3cccnc32)cc1` [Example 204, (S)-4-((4-(3-fluoro-4-(trifluoromethoxy)phenyl)-3,4-dihydro-2H-pyrano[3,2-b]pyridin-4-yl)carbamoyl) benzoic acid], the IC50 in test [1] was found to be 7 nM. The same molecule showed an inhibition in vivo at 1 mg/kg in test [2] of 98%.

`O=C(N[C@]1(c2ccc(OC(F)(F)F)c(F)c2)CCOc2cccnc21)c1ccc(-c2noc(=O)[nH]2)cn1` [Example 283, (S)—N-(4-(3-fluoro-4-(trifluoromethoxy)phenyl)-3,4-dihydro-2H-pyrano[3,2-b]pyridin-4-yl)-5-(5-oxo-4,5-dihydro-1,2,4-oxadiazol-3-yl)picolinamide]: in test [1], the half-maximal inhibitory concentration (IC50) worked out at 44 nM. For the same molecule, the inhibition in vivo at 1 mg/kg in test [2] is 78%. The matching figures for `C=Cc1cc(C(=O)N[C@]2(c3ccc(OC(F)(F)F)c(F)c3)CCOc3cccnc32)ccc1C(=O)O` [Example 289, (S)-4-((4-(3-fluoro-4-(trifluoromethoxy)phenyl)-3,4-dihydro-2H-pyrano[3,2-b]pyridin-4-yl)carbamoyl)-2-vinylbenzoic acid]: 18 nM and 93%. Consider `Cn1c(C(=O)O)ccc1C(=O)N[C@]1(c2ccc(OC(F)(F)F)c(F)c2)CCOc2cccnc21` [Example 324, (S)-5-((4-(3-fluoro-4-(trifluoro-methoxy)phenyl)-3,4-dihydro-2H-pyrano[3,2-b]pyridin-4-yl)carbamoyl)-1-methyl-1H-pyrrole-2-carboxylic acid], for which, in test [1], the IC50 was 103 nM. For the molecule `O=C(N[C@]1(c2ccc(OC(F)(F)F)c(F)c2)CCOc2cccnc21)c1ccc2cc(C(=O)O)[nH]c2c1` [Example 325, (S)-6-((4-(3-fluoro-4-(trifluoro-methoxy)phenyl)-3,4-dihydro-2H-pyrano[3,2-b]pyridin-4-yl)carbamoyl)-1H-indole-2-carboxylic acid], in test [1], the IC50 turned out to be 118 nM. On the same count and under the same terms, as for `O=C(N[C@]1(c2ccc(OC(F)(F)F)c(F)c2)CCOc2cccnc21)c1ccc(C(=O)O)nc1` [Example 328, (S)-5-((4-(3-fluoro-4-(trifluoro-methoxy)phenyl)-3,4-dihydro-2H-pyrano[3,2-b]pyridin-4-yl)carbamoyl) picolinic acid 2,2,2-trifluoroacetate], the figure is 1560 nM; as for `O=C(N[C@]1(c2ccc(OC(F)(F)F)c(F)c2)CCOc2cccnc21)c1csc(C(=O)O)n1` [Example 329, (S)-4-((4-(3-fluoro-4-(trifluoro-methoxy)phenyl)-3,4-dihydro-2H-pyrano[3,2-b]pyridin-4-yl)carbamoyl) thiazole-2-carboxylic acid], 231 nM. The same measure, in the same setting: then `O=C(O)c1ccnc(C(=O)N[C@]2(c3ccc(OC(F)(F)F)c(F)c3)CCOc3cccnc32)c1` [Example 330, (S)-2-((4-(3-fluoro-4-(trifluoro-methoxy)phenyl)-3,4-dihydro-2H-pyrano[3,2-b]pyridin-4-yl)carbamoyl) isonicotinic acid], with 94 nM. For `O=C(N[C@]1(c2ccc(OC(F)(F)F)c(F)c2)CCOc2cccnc21)c1ccc(C(=O)O)c(F)c1` [Example 331, (S)-2-fluoro-4-((4-(3-fluoro-4-(trifluoromethoxy)phenyl)-3,4-dihydro-2H-pyrano[3,2-b]pyridin-4-yl)carbamoyl) benzoic acid], the IC50 in test [1] is 34 nM.

In the case of `Cc1cc(C(=O)N[C@]2(c3ccc(OC(F)(F)F)c(F)c3)CCOc3cccnc32)ncc1C(=O)O` [Example 333, (S)-6-((4-(3-fluoro-4-(trifluoromethoxy)phenyl)-3,4-dihydro-2H-pyrano[3,2-b]pyridin-4-yl)carbamoyl)-4-methylnicotinic acid], in test [1], the IC50 is 25 nM. For `O=C(O)c1c[nH]c(C(=O)N[C@]2(c3ccc(OC(F)(F)F)c(F)c3)CCOc3cccnc32)c1` [Example 334, (S)-5-((4-(3-fluoro-4-(trifluoromethoxy)phenyl)-3,4-dihydro-2H-pyrano[3,2-b]pyridin-4-yl)carbamoyl)-1H-pyrrole-3-carboxylic acid], the IC50 in test [1] turned out to be 1010 nM. Same read-out and setting: as for `Cn1cc(C(=O)O)cc1C(=O)N[C@]1(c2ccc(OC(F)(F)F)c(F)c2)CCOc2cccnc21` [Example 335, (S)-5-((4-(3-fluoro-4-(trifluoromethoxy)phenyl)-3,4-dihydro-2H-pyrano[3,2-b]pyridin-4-yl)carbamoyl)-1-methyl-1H-pyrrole-3-carboxylic acid], the figure is 51 nM; as for `O=C(O)c1ccc(C(=O)N[C@]2(c3ccc(OC(F)(F)F)c(F)c3)CCOc3cccnc32)s1` [Example 336, (S)-5-((4-(3-fluoro-4-(trifluoromethoxy)phenyl)-3,4-dihydro-2H-pyrano[3,2-b]pyridin-4-yl)carbamoyl) thiophene-2-carboxylic acid 2,2,2-trifluoroacetate], 86 nM; as for `COc1cc(C(=O)N[C@]2(c3ccc(OC(F)(F)F)c(F)c3)CCOc3cccnc32)ccc1C(=O)O` [Example 337, (S)-4-((4-(3-fluoro-4-(trifluoromethoxy)phenyl)-3,4-dihydro-2H-pyrano[3,2-b]pyridin-4-yl)carbamoyl)-2-methoxybenzoic acid], 70 nM.

The record behind these values is patent US20150031668A1, “CHROMAN DERIVATIVES AS TRPM8 INHIBITORS” (AMGEN INC., priority 2013, published 2015).
